Measured values taken from US10821115B2, “Compounds that inhibit Mcl-1 protein” (priority 2017, dated 2020).
Read-outs that look alike come from different tables or passages of the source.

Columns and labels:
[1] = system: human multiple myeloma cell line, OPM-2; assay: Cell viability assay (OPM-2 10 FBS), CellTiter-Glo; assay type: cell-based
How it was run: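 3000 cells/well, RPMI 1640 + 10% FBS; serial compound dilutions, 16 h, 37 °C/5% CO2.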

[2] = molecular target: recombinant human Mcl-1 (residues 171-327) / Bim interaction (Homo sapiens (Human), UniProt Q07820); assay: biochemical; assay type: binding; details: read-out: Mcl-1 HTRF IC50
Chain of recombinant human Mcl-1 (residues 171-327) / Bim interaction (Q07820 171-327): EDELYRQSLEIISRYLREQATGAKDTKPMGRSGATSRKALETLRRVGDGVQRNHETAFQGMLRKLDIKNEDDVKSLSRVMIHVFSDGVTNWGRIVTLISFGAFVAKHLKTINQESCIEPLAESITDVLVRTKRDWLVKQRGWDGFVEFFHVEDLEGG

[3] = Homo sapiens, OPM-2, 16 h, read-out: OPM-2 10% FBS IC50 IP, OPM-2 cells, 10% FBS, 16 h, CellTiter-Glo
[4] = TR-FRET, Mcl-1(171-327) / biotin-Bim (51-76)
[5] = Homo sapiens, OPM-2, 16 h, read-out: OPM-2 10% FBS IC50 IP, OPM-2 cells, 10% FBS, 16 h incubation
[6] = 0.1 nM Mcl-1(171-327), 0.05 nM biotin-Bim (51-76)
[7] = read-out: OPM-2 10% FBS IC50 IP, OPM-2 cells, 10% FBS, 16 h, CellTiter-Glo

Question: C[C@@H]1[C@@H](C)CCC[C@@](O)(C2SCCCS2)[C@@H]2CC[C@H]2CN2C[C@@]3(CCCc4cc(Cl)ccc43)COc3ccc(cc32)C(=O)NS1(=O)=O [Example 100238, (1S,3′R,6′R,7′S,11′S,12′R)-6-chloro-7′-(1,3-dithian-2-yl)-7′-hydroxy-11′,12′-dimethyl-3,4-dihydro-2H,15′H-spiro[naphthalene-1,22′-[20]oxa[13]thia[1,14]diazatetracyclo [14.7.2.0~3,6~.0~19,24~]pentacosa[16,18,24]trien]-15′-one 13′,13′-dioxide] was tested. Which IC50 [1, 3] did it give?
Answer: 747 nM

Question: And the IC50 [2, 4]?
Answer: 0.474 nM

Question: With COC[C@]1(OC)/C=C/C[C@H](C)[C@@H](C)S(=O)(=O)NC(=O)c2ccc3c(c2)N(C[C@@H]2CC[C@H]21)C[C@@]1(CCCc2cc(Cl)ccc21)CO3 [Example 100401, (1S,3′R,6′R,7′S,8′E,11′S,12′R)-6-chloro-7′-methoxy-7′-(methoxymethyl)-11′,12′-dimethyl-3,4-dihydro-2H,15′H-spiro[naphthalene-1,22′-[20]oxa[13]thia[1,14]diazatetracyclo [14.7.2.0~3,6~.0~19,24~]pentacosa[8,16,18,24]tetraen]-15′-one 13′,13′-dioxide] as the compound, how does the IC50 [1, 3] read?
Answer: 8390 nM

Question: And the IC50 [2, 4]?
Answer: 1.8 nM

Question: With C[C@@H]1[C@@H](C)CCC[C@@](O)(c2cccnc2)[C@@H]2CC[C@H]2CN2C[C@@]3(CCCc4cc(Cl)ccc43)COc3ccc(cc32)C(=O)NS1(=O)=O [Example 100185, (1S,3′R,6′R,7′S,11′S,12′R)-6-chloro-7′-hydroxy-11′,12′-dimethyl-7′-(3-pyridinyl)-3,4-dihydro-2H,15′H-spiro[naphthalene-1,22′-[20]oxa[13]thia[1,14]diazatetracyclo [14.7.2.0~3,6~.0~19,24~]pentacosa[16,18,24]trien]-15′-one 13′,13′-dioxide] as the compound, how does the IC50 [1, 3] read?
Answer: 5130 nM

Question: What about the IC50 [2] of the same compound?
Answer: 8.88 nM

Question: With CCO[C@]1(CN2CCN(C3COC3)CC2)/C=C/C[C@H](C)[C@@H](COC)S(=O)(=O)NC(=O)c2ccc3c(c2)N(C[C@@H]2CC[C@H]21)C[C@@]1(CCCc2cc(Cl)ccc21)CO3 [Example 175] as the compound, how does the IC50 [1, 5] read?
Answer: 64 nM

Question: And the IC50 [2, 6]?
Answer: 0.069 nM

Question: Which results are given for COC[C@@H]1[C@@H](C)C/C=C/[C@](CN2CCN(C(C)(C)C)CC2)(OC)[C@@H]2CC[C@H]2CN2C[C@@]3(CCCc4cc(Cl)ccc43)COc3ccc(cc32)C(=O)NS1(=O)=O [Example 174, (1S,3′R,6′R,7′S,8′E,11′S,12′S)-7′-((4-tert-butyl-1-piperazinyl)methyl)-6-chloro-7′-methoxy-12′-(methoxymethyl)-11′-methyl-3,4-dihydro-2H,15′H-spiro[naphthalene-1,22′-[20]oxa[13]thia[1,14]diazatetracyclo [14.7.2.0~3,6~.0~19,24~]pentacosa[8,16,18,24]tetraen]-15′-one 13′,13′-dioxide]?
Answer: IC50 [1, 5]: 639 nM; IC50 [2, 6]: 0.322 nM

Question: What does the source list for CO[C@@]1(CN2CCC3(CCOC3)CC2)/C=C/C[C@H](C)[C@@H](C)S(=O)(=O)NC(=O)c2ccc3c(c2)N(C[C@@H]2CC[C@H]21)C[C@@]1(CCCc2cc(Cl)ccc21)CO3 [Example 265, (1S,3′R,6′R,7′S,8′E,11′S,12′R)-6-chloro-7′-methoxy-11′,12′-dimethyl-7′-(2-oxa-8-azaspiro[4.5]dec-8-ylmethyl)-3,4-dihydro-2H,15′H-spiro[naphthalene-1,22′-[20]oxa[13]thia[1,14]diazatetracyclo [14.7.2.0~3,6~.0~19,24~]pentacosa[8,16,18,24]tetraen]-15′-one 13′,13′-dioxide]?
Answer: IC50 [1, 5]: 578 nM; IC50 [2, 6]: 0.423 nM

Question: Which IC50 [1, 5] does the source give for CC(C)CO[C@]1(CN2CCN3CCOC[C@@H]3C2)/C=C/C[C@H](C)[C@@H](C)S(=O)(=O)NC(=O)c2ccc3c(c2)N(C[C@@H]2CC[C@H]21)C[C@@]1(CCCc2cc(Cl)ccc21)CO3 [Example 356, (1S,3′R,6′R,7′R,8′E,11′S,12′R)-6-chloro-7′-((9aS)-hexahydropyrazino[2,1-c][1,4]oxazin-8(1H)-ylmethyl)-11′,12′-dimethyl-7′-(2-methylpropoxy)-3,4-dihydro-2H,15′H-spiro[naphthalene-1,22′-[20]oxa[13]thia[1,14]diazatetracyclo [14.7.2.0~3,6~.0~19,24~]pentacosa[8,16,18,24]tetraen]-15′-one 13′,13′-dioxide] here?
Answer: 367 nM

Question: And the IC50 [2, 6]?
Answer: 0.11 nM

Question: What does the source list for C=CC[C@@]1(O)/C=C/C[C@H](C)[C@@H](C)S(=O)(=O)NC(=O)c2ccc3c(c2)N(C[C@@H]2CC[C@H]21)C[C@@]1(CCCc2cc(Cl)ccc21)CO3 [Example 100130, (1S,3′R,6′R,7′R,8′E,11′S,12′R)-6-chloro-7′-hydroxy-11′,12′-dimethyl-7′-(2-propen-1-yl)-3,4-dihydro-2H,15′H-spiro[naphthalene-1,22′-[20]oxa[13]thia[1,14]diazatetracyclo [14.7.2.0~3,6~.0~19,24~]pentacosa[8,16,18,24]tetraen]-15′-one 13′,13′-dioxide]?
Answer: IC50 [1, 7]: 2170 nM; IC50 [2, 4]: 2.69 nM

Question: With CCOCCN1CCN(C[C@]2(OC)/C=C/C[C@H](C)[C@@H](C)S(=O)(=O)NC(=O)c3ccc4c(c3)N(C[C@@H]3CC[C@H]32)C[C@@]2(CCCc3cc(Cl)ccc32)CO4)CC1 [Example 303, (1S,3′R,6′R,7′S,8′E,11′S,12′R)-6-chloro-7′-((4-(2-ethoxyethyl)-1-piperazinyl)methyl)-7′-methoxy-11′,12′-dimethyl-3,4-dihydro-2H,15′H-spiro[naphthalene-1,22′-[20]oxa[13]thia[1,14]diazatetracyclo [14.7.2.0~3,6~.0~19,24~]pentacosa[8,16,18,24]tetraen]-15′-one 13′,13′-dioxide] as the compound, how does the IC50 [1, 5] read?
Answer: 101 nM

Question: And the IC50 [2, 6]?
Answer: 0.15 nM

Question: C[C@@H]1[C@@H](C)CCC[C@@](O)(CS(=O)(=O)N(C)C(C)(C)C)[C@@H]2CC[C@H]2CN2C[C@@]3(CCCc4cc(Cl)ccc43)COc3ccc(cc32)C(=O)NS1(=O)=O [Example 100169, 1-((1S,3′R,6′R,7′S,11′S,12′R)-6-chloro-7′-hydroxy-11′,12′-dimethyl-13′,13′-dioxido-15′-oxo-3,4-dihydro-2H-spiro[naphthalene-1,22′-[20]oxa[13]thia[1,14]diazatetracyclo [14.7.2.0~3,6~.0~19,24~]pentacosa[16,18,24]trien]-7′-yl)-N-methyl-N-(2-methyl-2-propanyl)methanesulfonamide] was tested. Which IC50 [1, 7] did it give?
Answer: 2270 nM

Question: What about the IC50 [2, 4] of the same compound?
Answer: 4.83 nM

Question: CO[C@@]1(C)/C=C/C[C@H](C)[C@@H](CCN2CCOCC2)S(=O)(=O)NC(=O)c2ccc3c(c2)N(C[C@@H]2CC[C@H]21)C[C@@]1(CCCc2cc(Cl)ccc21)CO3 (single isomer, unassigned) [Example 100599] was tested. Which IC50 [1, 7] did it give?
Answer: 1140 nM

Question: And the IC50 [2, 4]?
Answer: 1.15 nM

Question: How did the IC50 ([1]; read-out: OPM-2 10% FBS IC50 IP, OPM-2 cells, 10% FBS, 16 h incubation) turn out when CO[C@@]1(CN2CCN3CCN(C(C)C)C[C@@H]3C2)/C=C/C[C@H](C)[C@@H](C)S(=O)(=O)NC(=O)c2ccc3c(c2)N(C[C@@H]2CC[C@H]21)C[C@@]1(CCCc2cc(Cl)ccc21)CO3 (single isomer, unassigned) [Example 241] was run?
Answer: 137 nM

Question: What about the IC50 [2, 6] of the same compound?
Answer: 0.15 nM

Question: With CO[C@@]1(CN2CCc3ncsc3C2)/C=C/C[C@H](C)[C@@H](C)S(=O)(=O)NC(=O)c2ccc3c(c2)N(C[C@@H]2CC[C@H]21)C[C@@]1(CCCc2cc(Cl)ccc21)CO3 [Example 209] as the compound, how does the IC50 [1, 5] read?
Answer: 437 nM

Question: And the IC50 [2, 6]?
Answer: 0.552 nM

Question: Which IC50 [1, 3] does the source give for C[C@@H]1[C@@H](C)CCC[C@@](C)(O)[C@@H]2CC[C@H]2CN2C[C@@]3(CCCc4cc(Cl)ccc43)COc3ccc(cc32)C(=O)NS1(=O)=O (single isomer, unassigned) [Example 100048] here?
Answer: 551 nM

Question: And the IC50 [2, 4]?
Answer: 0.187 nM

Question: Which IC50 [1, 3] does the source give for CO[C@@]1(C2SCCCS2)/C=C/[C@H](C)[C@H](C)CS(=O)(=O)NC(=O)c2ccc3c(c2)N(C[C@@H]2CC[C@H]21)C[C@@]1(CCCc2cc(Cl)ccc21)CO3 [Example 100567, (1S,3′R,6′R,7′S,8′E,10′S,11′S)-6-chloro-7′-(1,3-dithian-2-yl)-7′-methoxy-10′,11′-dimethyl-3,4-dihydro-2H,15′H-spiro[naphthalene-1,22′-[20]oxa[13]thia[1,14]diazatetracyclo [14.7.2.0~3,6~.0~19,24~]pentacosa[8,16,18,24]tetraen]-15′-one 13′,13′-dioxide] here?
Answer: 249 nM

Question: What about the IC50 [2, 4] of the same compound?
Answer: 0.125 nM

Question: Cc1cc(C[C@@]2(O)/C=C/C[C@H](C)[C@@H](C)S(=O)(=O)NC(=O)c3ccc4c(c3)N(C[C@@H]3CC[C@H]32)C[C@@]2(CCCc3cc(Cl)ccc32)CO4)no1 [Example 100540, (1S,3′R,6′R,7′R,8′E,11′S,12′R)-6-chloro-7′-hydroxy-11′,12′-dimethyl-7′-((5-methyl-1,2-oxazol-3-yl)methyl)-3,4-dihydro-2H,15′H-spiro[naphthalene-1,22′-[20]oxa[13]thia[1,14]diazatetracyclo [14.7.2.0~3,6~.0~19,24~]pentacosa[8,16,18,24]tetraen]-15′-one 13′,13′-dioxide] was tested. Which IC50 [1, 3] did it give?
Answer: 320 nM

Question: What about the IC50 [2, 4] of the same compound?
Answer: 0.275 nM

Question: How did the IC50 [1, 3] turn out when CC[C@@H]1CC/C=C/[C@](C=O)(OC)[C@@H]2CC[C@H]2CN2C[C@@]3(CCCc4cc(Cl)ccc43)COc3ccc(cc32)C(=O)NS1(=O)=O (single isomer, unassigned) [Example 100580] was run?
Answer: 6580 nM

Question: What about the IC50 [2, 4] of the same compound?
Answer: 0.877 nM

Question: What does the source list for CO[C@@]1(CC2=NCCO2)/C=C/C[C@H](C)[C@@H](C)S(=O)(=O)NC(=O)c2ccc3c(c2)N(C[C@@H]2CC[C@H]21)C[C@@]1(CCCc2cc(Cl)ccc21)CO3 [Example 100500, (1S,3′R,6′R,7′S,8′E,11′S,12′R)-6-chloro-7′-(4,5-dihydro-1,3-oxazol-2-ylmethyl)-7′-methoxy-11′,12′-dimethyl-3,4-dihydro-2H,15′H-spiro[naphthalene-1,22′-[20]oxa[13]thia[1,14]diazatetracyclo [14.7.2.0~3,6~.0~19,24~]pentacosa[8,16,18,24]tetraen]-15′-one 13′,13′-dioxide]?
Answer: IC50 [1, 3]: 71 nM; IC50 [2, 4]: 0.049 nM
